“Also recorded” adds a separate entry of the source. Read-outs that look alike come from different tables or passages of the source.
Legend:
[1] = tested on: human lung cancer cell line (A549); test: A549 cell growth inhibition, Alamar Blue assay; type: cell-based
Experimental: (§1) Adherent human solid tumor cells were plated and maintained for 3 days in the presence of increasing concentration of the compounds, and cell proliferation was measured by alamar blue assay, where 10% of commercially available solution is added to the cell medium and measure fluorescence in 96-well plates at wavelength of 530 nm excitation and 590 nm emission. The data calculations were carried out as previously described.
(§2) Compounds were further tested for cell growth inhibition in a human lung cancer cell line (A549) and conlon cancer cell line (HT29). The Alamar Blue assay, which specifically measures the inhibition of cell proliferation, was used to assess the GI50's of the compounds.

A549 cells = test: A549 cytotoxicity, CellTiter-Glo luminescence assay; conditions: A549, 16 hours, concentration range of anti-proliferative activity
Experimental: To determine if this was simply due to toxicity, cell viability after compound treatment was determined using a luminescence assay (FIG. 8B).

IRES driven translation = test: In vitro translation of dual luciferase reporter in rabbit reticulocyte lysate, CrPV IRES driven firefly luciferase; type: biochemical
From the text: (§3) To determine the relative effects of the compound on cap dependent and independent translation, we utilized a bicistronic mRNA construct containing the gene for Renilla luciferase under the control of the cap and the message for firefly luciferase under the control of the cricket paralysis virus IRES (FIG. 2A). […] A dicistronic reporter construct containing the Renilla reniformis luciferase sequence after the 5′ UTR followed by the CrPV IRES and the firefly luciferase sequence was used to build a reporter construct plasmid. The reporter construct plasmid was linearized with BamHI and transcribed in vitro with an ARCA cap using the mMessage Machine T7 Ultra Kit (Ambion). In vitro translation reactions were carried out using Red Nova reticulocyte lysate (Novagen) with 2 mM magnesium acetate and […] potassium acetate, incubated at 30 degrees C. for 90 minutes. Translation of reporter genes was measured using the Dual-Glo luciferase assay (Promega) in a Wallac Victor^2 plate reader.
(§4) In addition to structurally characterizing the binding of our hit compounds, biological activities of the compounds was evaluated. […] To test this hypothesis in vitro, a translation assay in rabbit reticulocyte lysate was carried out. A dicistronic reporter construct containing a cap-dependent Renilla luciferase and a cricket paralysis virus IRES driven firefly luciferase was utilized to measure the relative affect of a compound on both translation mechanisms.
(§5) A functional cell free assay determined the relative effects of the compounds on cap- and IRES-dependent translations. This assay involved the in vitro translation of bicistronic mRNA reporter construct encoding for renilla luciferase in a cap-dependent and for firefly luciferase in a cap independent manner, the later driven by cricket paralysis virus IRES.

[2] = tested on: cap-dependent translation; test: In vitro translation of dual luciferase reporter in rabbit reticulocyte lysate, cap-dependent Renilla luciferase; type: biochemical
From the text: as §3, §4, §5

Jurkat cells [3] = test: Apoptosis in Jurkat cells: sub-G1 DNA content by FACS, Hoechst 33342 nuclear morphology; type: cell-based, human
Experimental: (§6) Such results can result from pro-apoptotic and/or anti-proliferative activity in these cell lines. Cell viability was measured by treatment of Jurkat cells with compound for 24 hours and determination of intracellular ATP using the CellTiterGlo assay (Promega). […] After fixation and staining with PI cellular DNA content was determined by FACS analysis in a FACSCalibur machine (Beckton Dickinson). Nuclear morphology after 24 hour EG1-1 treatment was visualized by staining of cells with Hoechst 33342 dye and fluorescence microscopy.

A549 lung cancer cells = test: A549 proliferation, sulforhodamine B (SRB) assay; type: cell-based, human
Experimental: FIG. 28 is a graph showing the results of a cell proliferation assay. A549 cells, which are human lung cancer cells, are grown in plates for five days in medium containing 5% FCS and compound. The number of cells is quantified by staining with sulforhodamine B.

Jurkat cells [4] = test: Jurkat cell viability by intracellular ATP (CellTiterGlo); type: cell-based, human; conditions: 24 hours
Experimental: as §6

Jurkat cells [5] = test: Real-time PCR of c-myc and Bcl-xL mRNA relative to β-actin in Jurkat cells; conditions: 8 hrs
Experimental: (§7) For analysis of cellular protein and mRNA levels, Jurkat cells were grown for 8 hours in the presence of the compound. Extracts for Western blotting were prepared from half of the cells by multiple freeze-thaw cycles. β-actin, Bcl-xL, and c-myc were detected using polyclonal antibodies (Cell Signaling). For the remaining cells the PARIS kit (Ambion) was used to isolate total nuclear and total cytoplasmic RNA fractions. The integrity of the fractionation was confirmed by agarose gel electrophoresis (as prescribed by Ambion). Contaminating DNA was removed using the DNA-free kit (Ambion), and cDNA was prepared using MMLV reverse transcriptase (Promega). The relative abundance of the c-myc and Bcl-xL messages compared to β-actin was determined by real-time PCR with validated QuantiTec probes and the QuantiTec SYBR Green Kit (Qiagen), using a thermocycler from Applied Biosystems.

Jurkat cells [6] = test: Western blotting of Jurkat cell extracts for protein levels; conditions: 8 hours
Experimental: as §7

HT29 colon cancer cells = test: HT29 cell growth, Alamar Blue assay; type: cell-based; conditions: Homo sapiens, HT-29
Experimental: as §1
Med. Chem. Lett. 14: 2547-50, 2004. […] .
as §2

O=C(O)/C(Cc1ccccc1[N+](=O)[O-])=N/Nc1nc(-c2ccc(Cl)c(Cl)c2)cs1 [EGI-1, 2-{[4-(3,4-Dichloro-phenyl)-thiazol-2-yl]-hydrazono}-3-(2-nitro-phenyl)-propionic acid]
GI50 [1]: 5 µM | cytotoxicity (cell viability after compound treatment) (A549 cells): No significant cytotoxicity | IRES driven / cap-independent translation (firefly luciferase) (IRES driven translation): does not inhibit; also recorded: not inhibited and in fact significantly enhanced; also recorded: enhanced translation from the CrPV IRES | IRES driven / cap-independent translation (firefly luciferase) (IRES driven translation; listed as compound 1): enhance | cap-dependent translation (Renilla luciferase) [2]: inhibits cap-dependent translation; also recorded: inhibited in a dose-dependent manner; also recorded: inhibited translation of the cap-dependent luciferase | cap-dependent translation (Renilla luciferase) ([2]; listed as compound 1): inhibit dose-dependently | apoptosis induction (Jurkat cells [3]): induces apoptosis; also recorded: pro-apoptotic activity | sub-G1 fraction on co-treatment with zVAD-FMK (Jurkat cells [3]; 60 μM with 100 μM zVAD-FMK, 24 hours): suppressed | nuclear morphology (Hoechst 33342) (Jurkat cells [3]; 60 μM, 24 hours): induces fragmented nuclear morphology | sub-G1 fraction (fragmented DNA) (Jurkat cells [3]; 60 μM, 24 hours): induces DNA fragmentation; also recorded: large increase in the sub-G1 fraction | IC50 (A549 lung cancer cells; Homo sapiens, A549, FIG. 8A, read-out: IC50, anti-proliferative activity in A549 cells): ~6 µM | proliferation of A549 cells (in words) (A549 lung cancer cells; SRB assay, five day growth period): inhibits proliferation | cell viability (cellular ATP level) (Jurkat cells [4]): induces loss of cell viability; also recorded: dose-dependent loss of cell viability | transcriptional level, transport or stability of c-myc and Bcl-xL mRNA (Jurkat cells [5]): does not affect | effect on strong mRNAs such as β-actin (protein level) (Jurkat cells [6]): little or no effect | production of proteins encoded by weak mRNAs (Bcl-xL, c-myc) (Jurkat cells [6]): inhibits the production | IC50 (HT29 colon cancer cells): 9 µM | GI50 (HT29 colon cancer cells; Alamar Blue assay): 9 µM

Reference: patent publication US8257931B2 (President and Fellows of Harvard College, priority 2005, dated 2012)
